Reference: ChEMBL document CHEMBL3091307, “Structure-anti-MRSA activity relationship of macrocyclic bis(bibenzyl) derivatives” (2013)
Values after ≈ are worked out from the molar mass of the structure shown. Active and inactive are the calls of the source. No cut-off for these calls is given here.

Key:
[1] = test system: Staphylococcus aureus; assay: Antibacterial activity against methicillin-resistant Staphylococcus aureus clinical isolate OM584 by liquid microdilution method; type: functional
[2] = test system: Staphylococcus aureus; assay: Antibacterial activity against methicillin-resistant Staphylococcus aureus clinical isolate OM481 by liquid microdilution method; type: functional
[3] = test system: Staphylococcus aureus; assay: Antibacterial activity against methicillin-resistant Staphylococcus aureus clinical isolate N315 by liquid microdilution method; type: functional
[4] = test system: Staphylococcus aureus; assay: Bacteriostatic activity against methicillin-resistant Staphylococcus aureus at 4 times MIC by cell survival assay; type: functional, organism-based
[5] = test system: Staphylococcus aureus; assay: Bactericidal activity against methicillin-resistant Staphylococcus aureus at 4 times MIC by cell survival assay; type: functional, organism-based
[6] = test system: Staphylococcus aureus; assay: Antibacterial activity against methicillin-resistant Staphylococcus aureus at 4 times MIC by cell survival assay; type: functional, organism-based
[7] = test system: Staphylococcus aureus; assay: Antibacterial activity against 2-phenoxyphenol and trichlosan-resistant Staphylococcus aureus clinical isolate N315 by liquid microdilution method; type: functional

Row | Compound | MIC [1] | MIC [2] | MIC [3] | Activity [4] | Activity [5] | Activity [6] | MIC [7]
1 | CC(=O)NC[C@H]1CN(c2ccc(N3CCOCC3)c(F)c2)C(=O)O1 [LINEZOLID] | 1 mg/L (≈ 2.96 µM) | 1 mg/L (≈ 2.96 µM) | – | – | – | – | –
2 | Oc1ccc2c(c1)CCc1ccc(cc1)Oc1cc(ccc1F)CCc1ccc-2c(O)c1 | 2 mg/L (≈ 4.69 µM) | 1 mg/L (≈ 2.34 µM) | 1 mg/L (≈ 2.34 µM) | – | – | – | –
3 | Oc1ccc2c(c1)CCc1ccc(O)c(c1)Oc1ccc(cc1)CCc1ccc-2c(O)c1 | 4 mg/L (≈ 9.42 µM) | 4 mg/L (≈ 9.42 µM) | 4 mg/L (≈ 9.42 µM) | – | – | – | –
4 | Oc1ccc2c(c1)CCc1ccc(c(O)c1)Oc1cc(ccc1O)CCc1ccc-2c(O)c1 | 16 mg/L (≈ 36.3 µM) | 16 mg/L (≈ 36.3 µM) | 8 mg/L (≈ 18.2 µM) | – | – | – | –
5 | Oc1ccccc1Oc1ccccc1 | 8 mg/L (≈ 43 µM) | 8 mg/L (≈ 43 µM) | 8 mg/L (≈ 43 µM) | Active | inactive | – | –
6 | Oc1ccc2c(c1)CCc1ccc(c(F)c1)Oc1cc(ccc1O)CCc1ccc-2c(O)c1 | 8 mg/L (≈ 18.1 µM) | 8 mg/L (≈ 18.1 µM) | 4 mg/L (≈ 9.04 µM) | – | – | – | –
7 | Oc1ccc2c(c1)CCc1ccc(cc1O)Oc1cccc(c1)CCc1ccc-2c(O)c1 | 4 mg/L (≈ 9.42 µM) | 4 mg/L (≈ 9.42 µM) | 4 mg/L (≈ 9.42 µM) | – | – | – | –
8 | Oc1ccc2c(c1)CCc1ccc(c(O)c1)-c1ccc(O)c(c1)CCc1ccc-2c(O)c1 | 32 mg/L (≈ 75.4 µM) | 32 mg/L (≈ 75.4 µM) | 32 mg/L (≈ 75.4 µM) | – | – | – | –
9 | Oc1ccc2cc1Oc1ccc(cc1)CCc1ccc(O)c(c1)Oc1ccc(cc1)CC2 | > 100 mg/L | > 100 mg/L | > 100 mg/L | – | – | – | –
10 | Oc1ccc2c(c1)CCc1ccc(cc1)Oc1cc(ccc1O)CCc1ccc-2c(O)c1 [RICCARDI C] | 2 mg/L (≈ 4.71 µM) | 2 mg/L (≈ 4.71 µM) | 2 mg/L (≈ 4.71 µM) | – | – | Active | 2 mg/L (≈ 4.71 µM)
11 | Oc1ccc2c(c1)CCc1ccc(cc1)Oc1cccc(c1)CCc1ccc-2c(O)c1 | 1 mg/L (≈ 2.45 µM) | 1 mg/L (≈ 2.45 µM) | 1 mg/L (≈ 2.45 µM) | – | – | – | 1 mg/L (≈ 2.45 µM)
12 | Oc1ccc2c(c1)CCc1ccc(cc1O)Oc1cc(ccc1O)CCc1ccc-2c(O)c1 | 8 mg/L (≈ 18.2 µM) | 8 mg/L (≈ 18.2 µM) | 8 mg/L (≈ 18.2 µM) | – | – | – | –
13 | Oc1ccc2cc1Oc1ccc(cc1)CCc1ccccc1-c1ccc(cc1O)CC2 | 1 mg/L (≈ 2.45 µM) | 1 mg/L (≈ 2.45 µM) | 1 mg/L (≈ 2.45 µM) | – | – | – | 1 mg/L (≈ 2.45 µM)
